From US20240092779A1, “USP1 INHIBITORS AND USES THEREOF” (Zentaur Therapeutics USA Inc., priority 2022, published 2024)

Legend:
[1] = Liver microsomal stability (HLM); format: in vitro ADME; details: human, liver microsomes, human liver microsomes 0.5 mg/mL, 1 μM compound, NADPH
Procedure: Liver Microsomal Stability
Certain Compounds of the Disclosure were assessed for ADME metabolic stability in human liver microsomes (HLM).
Samples were prepared by adding 222.5 μL of a master solution (100 mM phosphate buffer and 0.5 mg/mL liver microsomes (HLM)) and 25 μL of a 10 mM NADPH solution to incubation plates, which were then warmed for 10 min. Each compound was separately dissolved in DMSO to prepare 10 mM stock solutions, which were then diluted to 100 μM with acetonitrile. A reaction was started by adding 2.5 μL of the […] solution of each compound to separate incubation plates such that the final concentration of for each compound in each plate was 1 μM. Aliquots of 30 μL were taken from the reaction solution at 0.5, 5, 15, 30 and 60 minutes. The reaction was stopped by the addition of 5 volumes of cold acetonitrile with IS (100 nM alprazolam, 200 nM caffeine and 100 nM tolbutamide). Aliquot of 100 μL of the supernatant was diluted by 100 μL ultra-pure water, and the mixture was used for LC/MS/MS analysis. Peak areas were determined from extracted ion chromatograms. […]. The percentage of remaining parent was calculated from peak area of test compound or PC. The slope value, k, is determined by linear regression of the natural logarithm of percent parent remaining vs. incubation time curve. All calculations are carried out using Microsoft Excel.
The in vitro half-life (in vitro t1/2) is determined from the slope value:
Conversion of the in vitro t1/2 (in min) into the in vitro intrinsic clearance (in vitro CLint, (HLM Clint (μL/min/mg proteins))) is done using the following equation: […]
A: HLM Clint <10 μL/min/mg; B: 10 μL/min/mg≤HLM Clint <50 μL/min/mg; C: HLM Clint ≥50 μL/min/mg.

HCC1806 Ub-PCNA (USP1) = experiment: USP1 Western Blot Protocol (HCC1806 Ub-PCNA); format: cell-based; details: HCC1806 cells, 4 hours
Source text: USP1 Western Blot Protocol (HCC1806 Ub-PCNA)
USP1 is a deubiquitinase that catalyze the hydrolysis of iso-peptide bond between ubiquitin and the substrate proteins. Inhibition of USP1 activity results in accumulation of mono-ubiquitinated substrate such as Ub-PCNA. A cell assay was set up to determine the cellular potency of USP1 compounds by monitoring the accumulation of Ub-PCNA. The signal intensity was detected by a specific Ub-PCNA antibody through Western-blot analysis.
The assay was initiated by seeding HCC1806 cells (ATCC, CRL-2335) into 6-well plates (Corning, 3516), with a seeding density of 3×10^5 cells per well and 2 mL RPMI 1640 culture medium (Gibco, 11875119). The plates were incubated overnight at 37° C. and 5% CO2. Compounds, solubilized in DMSO (Solarbio, D8371) as 1 mM stock solution, were diluted in 4-fold steps for 5-cencentration point dose response plus a no-compound DMSO control. Diluted compounds (2 μL) were transferred into assay wells (with a final DMSO concentration of −0.1%) and the resulted assay plates incubated at 37° C. and 5% CO2 for 4 hours. After aspiration of culture medium, 100 μL of 4° C. RIPA lysis buffer (Boston BioProducts, BP-115D) supplemented with vendor recommended concentrations of protease (Roche, 4693116001) and phosphatase (Roche, 4906837001) inhibitor, was added to each well and incubated for 10 minutes on the ice. Cells were scrapped loose from the bottom of well with a scraper (Corning, 3008), transferred into a 600 μL EP tube, sonicated using Ultrasound (Qsonica, Q800R3, with 30% energy, 5-second pulse on/off cycles at 4° C., for total 2 minutes), centrifuged 13,000 rpm for 15 minutes at 4° C., and then the supernatant transferred to a new 600 μL EP tube. The total protein concentration was determined using BCA kit following vendor recommended protocol (Solarbio, PC0020-500). Loading samples were prepared by diluting the total protein concentration to 1.5 μg/μL with 5 X NuPAGE SDS loading buffer (Beyotime, P0015L) and RIPA lysis buffer, and boiling at 100° C. for 5 minutes.
15 μg protein from each sample was loaded onto NuPAGE® Novex 4-12% Bis-Tris Midi Gel, 26 W (Invitrogen, WG1403BOX) and electrophoresis was run at 80 V for 30 minutes and 120 V till the end using 1x NuPAGE® MOPS SDS Running Buffer (Novex, NP0001). The gel was then transferred to nitrocellulose membrane using the dry transfer system (iBlot 2 Transfer Stacks, nitrocellulose, D323001) with a program consisting of 20 V for 1 minute, 23 V for 4 minutes and 25 V for 2 minutes. After the membrane was blocked with 5% BSA (Solarbio, A8020) in 1X TBST (CST, 9997S) for 1 hour at room temperature, specific antibodies (Ubiquityl-PCNA antibody (CST, 13439) at 1:500 dilution, PCNA antibody (Santa Cruz, sc-56) at 1:1000 dilution, and GAPDH (CST, 5174) at 1:2000 dilution in 1 X TBST containing 1% BSA) were added and incubated at room temperature for 1.5 hours. After washing the Nitrocellulose membranes with 1 X TBST for 3 times, 10 minutes each time at room temperature, fluorescently labeled secondary antibodies (anti-rabbit IgG, Licor, 926-32211; anti-mouse IgG, LI-COR, 926-68070) at 1:5000 dilution in 1 X TBST containing 1% BSA were added and incubated for 1 hour at room temperature in the dark. The membranes were then rinsed with 1 X TBST and immersed in the RO water. Imaging of band intensity was acquired with Li—COR imaging system (Li—COR, Odyssey clx ES).
Percentage of USP1 inhibition (% Vehicle) was calculated by using following equation examining Ub-PCNA upregulation:
And IC50 was calculated using four-parameter logistic fitting program • Y=Bottom+(Top-Bottom)/(1+10 {circumflex over (()}(LogIC50−X)*Hill Slope)) • X=Log of dose or concentration
(§1) Certain compounds were tested in the assays.

MDA-MB-436 cells = experiment: CTG Protocol (MDA-MB-436 GI50), antiproliferative activity; format: cell-based, human; details: MDA-MB-436 cells (BRCA1 mutation), 7-day incubation, CellTiter-Glo
Procedure: CTG Protocol (MDA-MB-436 GI50)
Antiproliferative activity of USP1 inhibitors was determined using breast cancer cell line MDA-MB-436 that harbors BRCA1 mutation. MDA-MB-436 cells (ATCC, HTB-130) was seeded with a seeding density of 1000 cells per well and 95 μL DMEM medium (Gibco, 10566016) into 96-well cell plates (Corning, 3610), and incubated overnight at 37° C. and 5% CO2. Compounds were solubilized in DMSO (Solarbio, D8371) as 10 mM stock solution, and then series diluted (3 folds) with DMSO for 9-point dose-response testing. The resulted series dilutions were then jump-diluted 50-fold by cell culture medium to afford the 20×stock solutions (containing 2% DMSO). Treatment was initiated by adding 5 μL of 20×stock solution to the assay plate and incubated at 37° C. and 5% CO2. At the end of 7-day incubation, cell assay plates were removed from incubation and equilibrated to room temperature (20 min). Then 100 μL of CellTiter-Glo (Promega, G9243) reagent, prepared per manufacturer's protocol, was added to each well, and the resulted plates were centrifuged 1,000 rpm for 1 minute, incubated at room temperature in the dark for 20 minutes, sealed with Perkin Elmer sticky film, and the luminescence signal read by Envision (Perkin Elmer).
Data analysis • a) % Inhibition was calculated using following equation: […]
X: compound concentration; Y: % Inhibition
as §1

Compound | microsomal CLint at 1 μM [1] [µL/min/mg] | IC50 (HCC1806 Ub-PCNA (USP1); Homo sapiens) [nM] | GI50 (MDA-MB-436 cells; Homo sapiens, 168 h) [nM] | IC50 (HCC1806 Ub-PCNA (USP1)) [nM] | GI50 (MDA-MB-436 cells) [nM]
COc1ncnc(C2CC2)c1-c1ncc2ccc(=O)n(Cc3ccc(-c4nc(C(F)(F)F)cn4C)cc3)c2n1 [Compound I-1, 2-(4-Cyclopropyl-6-Methoxypyrimidin-5-Yl)-8-({4-[1-Methyl-4-(Trifluoromethyl)Imidazol-2-Yl]Phenyl}Methyl)Pyrido[2,3-d]Pyrimidin-7-One] | 10 to 50 | – | – | – | –
COc1ncnc(C2CC2)c1-c1cc2c(ccc(=O)n2Cc2ccc(-c3nc(C(F)(F)F)cn3C)cc2)cn1 [Compound I-11, 7-(4-Cyclopropyl-6-Methoxypyrimidin-5-Yl)-1-({4-[1-Methyl-4-(Trifluoromethyl)Imidazol-2-Yl]Phenyl}Methyl)-1,6-Naphthyridin-2-One] | 10 to 50 | – | – | – | –
[2H]C([2H])([2H])n1cc(C(F)(F)F)nc1-c1ccc(Cn2c(=O)ccc3cnc(-c4c(OC)ncnc4C4CC4)nc32)cc1 [Compound I-31, 2-(4-Cyclopropyl-6-Methoxypyrimidin-5-Yl)-8-({4-[1-(2H3)Methyl-4-(Trifluoromethyl)Imidazol-2-Yl]Phenyl}Methyl)Pyrido[2,3-d]Pyrimidin-7-One] | 10 to 50 | 10 to 100 | < 10 | – | –
COc1ncnc(C2CC2)c1-c1ncc2cc(-c3c(C)cnn3C)c(=O)n(Cc3ccc(-c4nc(C(F)(F)F)cn4C(C)C)cc3)c2n1 [Compound I-165, 2-(4-Cyclopropyl-6-Methoxypyrimidin-5-Yl)-6-(2,4-Dimethylpyrazol-3-Yl)-8-({4-[1-Isopropyl-4-(Trifluoromethyl)Imidazol-2-Yl]Phenyl}Methyl)Pyrido[2,3-d]Pyrimidin-7-One] | – | 10 to 100 | 10 to 100 | – | –
COc1ncnc(C2CC2)c1-c1ncc2ncc(=O)n(Cc3ccc(-c4nc(C(F)(F)F)cn4C)cc3)c2n1 [Compound I-17, 2-(4-cyclopropyl-6-methoxypyrimidin-5-yl)-8-({4-[1-methyl-4-(trifluoromethyl)imidazol-2-yl]phenyl}methyl) pteridin-7-one] | 10 to 50 | – | – | – | –
[2H]C([2H])([2H])n1cc(C(F)(F)F)nc1-c1ccc(C([2H])([2H])n2c(=O)ccc3cnc(-c4c(OC)ncnc4C4CC4)nc32)cc1 [Compound I-37, 2-(4-Cyclopropyl-6-Methoxypyrimidin-5-Yl)-8-({4-[1-(2H3)Methyl-4-(Trifluoromethyl)Imidazol-2-Yl]Phenyl}(2H2)Methyl)Pyrido[2,3-d]Pyrimidin-7-One] | 10 to 50 | 10 to 100 | 10 to 100 | – | –
COc1ncnc(C2CC2)c1-c1ncc2ccc(=O)n(Cc3ccc(-c4nc(C(F)(F)F)cn4C4COC4)cc3)c2n1 [Compound I-59] | 10 to 50 | – | – | – | –
[2H]C([2H])([2H])Oc1ncnc(C2CC2)c1-c1ncc2ccc(=O)n(C([2H])([2H])c3ccc(-c4nc(C(F)(F)F)cn4C([2H])([2H])[2H])cc3)c2n1 [Compound I-57] | 10 to 50 | – | – | – | –
CCc1ncnc(C2CC2)c1-c1ncc2ccc(=O)n(Cc3ccc(-c4nc(C(F)(F)F)cn4C)cc3)c2n1 [Compound 52, 2-(4-Cyclopropyl-6-Ethylpyrimidin-5-Yl)-8-({4-[1-Methyl-4-(Trifluoromethyl)Imidazol-2-Yl]Phenyl}Methyl)Pyrido[2,3-d]Pyrimidin-7-One] | – | 100 to 1000 | 100 to 1000 | – | –
COc1ncnc(C2CC2)c1-c1ncc2cc(-c3cnnn3C)c(=O)n(Cc3ccc(-c4nc(C(F)(F)F)cn4C4CC4)cc3)c2n1 [Compound I-159, 8-({4-[1-cyclopropyl-4-(trifluoromethyl)imidazol-2-yl]phenyl}methyl)-2-(4-cyclopropyl-6-methoxypyrimidin-5-yl)-6-(3-methyl-1,2,3-triazol-4-yl)pyrido[2,3-d]pyrimidin-7-one] | – | < 10 | 10 to 100 | – | –
COc1ncnc(C2CC2)c1-c1ncc2cc(Cl)c(=O)n(Cc3ccc(-c4nc(C(F)(F)F)cn4C)cc3)c2n1 [Compound 79, 6-Chloro-2-(4-Cyclopropyl-6-Methoxypyrimidin-5-Yl)-8-({4-[1-Methyl-4-(Trifluoromethyl)Imidazol-2-Yl]Phenyl}Methyl)Pyrido[2,3-d]Pyrimidin-7-One] | – | 10 to 100 | 10 to 100 | – | –
COc1ncnc(C2CC2)c1-c1ncc2ccc(=O)n(C(C)c3ccc(-c4nc(C(F)(F)F)cn4C)cc3)c2n1 (stereo not shown) [Compound 63] | – | – | – | 10 to 100 | 10 to 100
COc1ncnc(C2CC2)c1-c1ncc2ccc(=O)n(C(C)c3ccc(-c4nc(C(F)(F)F)cn4C)cc3)c2n1 (stereo not shown) [Compound I-43, 2-(4-Cyclopropyl-6-Methoxypyrimidin-5-Yl)-8-(1-{4-[1-Methyl-4-(Trifluoromethyl)Imidazol-2-Yl]Phenyl}Ethyl)Pyrido[2,3-d]Pyrimidin-7-One] | – | 10 to 100 | 10 to 100 | – | –
COc1ncnc(C2CC2)c1-c1ncc2cc(-c3cnn(C)c3)c(=O)n(Cc3ccc(-c4nc(C(F)(F)F)cn4C)cc3)c2n1 [Compound 64] | – | 10 to 100 | 10 to 100 | – | –
